Reference: patent US20230106506A1, “NOVEL PqsR INVERSE AGONISTS” (Helmholtz-Zentrum Fur Infektionsforschung GmbH, priority 2020, published 2023)

How the values were obtained:
[1] = tested on: P. aeruginosa pyocyanin production; assay: Pyocyanin assay; type: cell-based, P. aeruginosa strain PA14; settings: Pseudomonas aeruginosa, PA14, 16 h, read-out: IC50-value towards pyocyanin production
Description: Inhibition of P. aeruginosa pyocyanin production by compounds was determined photometrically as described before. In short, an overnight culture of PA14 in PPGAS medium was washed, diluted in medium to a start OD600 of 0.02, and incubated for 16 h (37° C., 200 rpm, relative humidity 75%) in the presence of test compounds. Then, cultures were extracted with chloroform and re-extracted with 0.2 M HCl. Protonated red colored pyocyanin was determined by measuring OD520 and normalizing to OD600.

[2] = Metabolic stability in mouse liver microsomes (MLM); type: in vitro ADME; settings: 1 μM compound, 0.5 mg/mL MLM, 1 mM NADPH, 37° C., read-out: half-life (t1/2) towards MLM
Description: For the evaluation of phase I metabolic stability, the compound (1 μM) was incubated with 0.5 mg/mL MLM (Corning) and 1 mM NADPH at 37° C. for 0, 5, 10, 15 and 30 min. The metabolic stability of Verapamil, Diphenhydramine and Benzydamine (1 μM each) were determined in parallel to confirm the enzymatic activity of the MLM. The incubation was stopped by addition of 2 volumes of acetonitrile containing internal standard (1 μM Leucine Enkephaline). Samples were centrifuged (15 min, 3,500 rpm). Concentration of the remaining test compound at the different time points was analyzed by HPLC-MS/MS and used to determine half-life (t1/2).

[3] = Kinetic turbidimetric aqueous solubility; type: physicochemical; settings: aqueous buffer, kinetic from dmso stock; PBS buffer, final DMSO 2%, absorbance 620 nm; read-out: Kinetic Turbidimetric Aqueous Solubility at room temperature for 5 min
Description: Kinetic Turbidimetric Aqueous Solubility at room temperature for 5 min. […] Data was analyzed by fitting a four parameter sigmoidal function to the measured and normalized absorbances and AUC calculation providing access to Log S (decadic logarithm of the solubility).

solubility at 5 min [3] [µM]	SMILES	IC50 [1] [nM]	half-life at 1 µM [2] [h]
	CC(C)Oc1ccc(-c2ccc(CNc3cc(-n4cncn4)nc(C(F)(F)F)c3)nc2)cc1 [Compound 25, N-((5-(4-Isopropoxyphenyl)pyridin-2-yl)methyl)-2-(1H-1,2,4-triazol-1-yl)-6-(trifluoromethyl)pyridin-4-amine]	101 to 200	> 1.67
	Fc1cccc(Oc2ccc(-c3ncc(CNc4cc(-c5cn[nH]c5)nc(C(F)(F)F)c4)cn3)cc2)c1 [Compound 52, N-((2-(4-(3-Fluorophenoxy)phenyl)pyrimidin-5-yl)methyl)-2-(1H-pyrazol-4-yl)-6-(trifluoromethyl)pyridin-4-amine]	101 to 200	> 1.67
≥ 100	CC(C)Oc1ccc(-c2ncc(CNc3cc(-c4nn[nH]n4)nc(C(F)(F)F)c3)s2)cc1 [Compound 19]		> 1.67
> 10	CC(C)Oc1ccc(-c2ncc(CNc3cc(-c4cnc[nH]4)nc(C(F)(F)F)c3)cn2)cc1 [Compound 41, 2-(1H-Imidazol-5-yl)-N-((2-(4-isopropoxyphenyl)pyrimidin-5-yl)methyl)-6-(trifluoromethyl)pyridin-4-amine]		> 1.67
	CC(C)Oc1ccc(-c2ncc(CNc3cc(-n4ccnc4)nc(C(F)(F)F)c3)cn2)cc1 [Compound 29, 2-(1H-Imidazol-1-yl)-N-((2-(4-isopropoxyphenyl)pyrimidin-5-yl)methyl)-6-(trifluoromethyl)pyridin-4-amine]	101 to 200	> 1.67
> 10	FC(F)(F)c1nc(SCc2nc3cc(Oc4ccccc4)ccc3[nH]2)cc(-n2ccnc2)n1 [Compound 63, 2-(((6-(1H-Imidazol-1-yl)-2-(trifluoromethyl)pyrimidin-4-yl)thio)methyl)-5-phenoxy-1H-benzo[d]imidazole]		
	CC(C)Oc1ccc(-c2cnc(CNc3cc(-n4ccnc4)nc(C(F)(F)F)c3)nc2)cc1Cl [Compound 46, N-((5-(3-Chloro-4-isopropoxyphenyl)pyrimidin-2-yl)methyl)-2-(1H-imidazol-1-yl)-6-(trifluoromethyl)pyridin-4-amine]	201 to 500	1.02 to 1.67
> 25	CC(C)Oc1ccc(-n2cc(CNc3cc(-c4cn[nH]c4)nc(C(F)(F)F)c3)nn2)cc1 [Compound 05, N-((1-(4-Isopropoxyphenyl)-1H-1,2,3-triazol-4-yl)methyl)-2-(1H-pyrazol-4-yl)-6-(trifluoromethyl)pyridin-4-amine]		
> 10	CC(C)Oc1ccc(-n2cc(CNc3cc(-n4cncn4)nc(C(F)(F)F)c3)nn2)cc1 [Compound 06, N-((1-(4-Isopropoxyphenyl)-1H-1,2,3-triazol-4-yl)methyl)-2-(1H-1,2,4-triazol-1-yl)-6-(trifluoromethyl)pyridin-4-amine]		1.02 to 1.67
	CC(C)Oc1ccc(-c2ncc(CNc3cc(-c4cc[nH]n4)nc(C(F)(F)F)c3)cn2)cc1Cl [Compound 32, N-((2-(3-Chloro-4-isopropoxyphenyl)pyrimidin-5-yl)methyl)-2-(1H-pyrazol-3-yl)-6-(trifluoromethyl)pyridin-4-amine]	201 to 500	1.02 to 1.67
	CC(C)Oc1ccc(-c2ncc(CNc3cc(-n4cncn4)nc(C(F)(F)F)c3)cn2)cc1 [Compound 59, N-((2-(4-Isopropoxyphenyl)pyrimidin-5-yl)methyl)-2-(1H-1,2,4-triazol-1-yl)-6-(trifluoromethyl)pyridin-4-amine]	101 to 200	> 1.67
	CC(C)Oc1ccc(-c2cnc(CNc3cc(-n4ccnc4)nc(C(F)(F)F)c3)nc2)cc1 [Compound 45, 2-(1H-Imidazol-1-yl)-N-((5-(4-isopropoxyphenyl)pyrimidin-2-yl)methyl)-6-(trifluoromethyl)pyridin-4-amine]	201 to 500	> 1.67
> 10	FC(F)(F)c1cc(NCc2cnc(-c3ccc(Oc4ccc(Cl)cc4)cc3)nc2)cc(-c2cn[nH]c2)n1 [Compound 54, N-((2-(4-(4-Chlorophenoxy)phenyl)pyrimidin-5-yl)methyl)-2-(1H-pyrazol-4-yl)-6-(trifluoromethyl)pyridin-4-amine]		> 1.67
	CC(C)Oc1ccc(-c2ncc(CNc3cc(-c4cncs4)nc(C(F)(F)F)c3)cn2)cc1 [Compound 70, N-((2-(4-Isopropoxyphenyl)pyrimidin-5-yl)methyl)-2-(thiazol-5-yl)-6-(trifluoromethyl)pyridin-4-amine]	101 to 200	> 1.67
	FC(F)(F)c1cc(SCc2nc3cc(Oc4ccccc4)ccc3[nH]2)cc(-n2ccnc2)n1 [Compound 62, 2-(((2-(1H-Imidazol-1-yl)-6-(trifluoromethyl)pyridin-4-yl)thio)methyl)-5-phenoxy-1H-benzo[d]imidazole]	201 to 500	
	CC(C)Oc1ccc(-c2ccc(CNc3cc(-n4cncn4)nc(C(F)(F)F)c3)nc2)cc1Cl [Compound 26, N-((5-(3-Chloro-4-isopropoxyphenyl)pyridin-2-yl)methyl)-2-(1H-1,2,4-triazol-1-yl)-6-(trifluoromethyl)pyridin-4-amine]	201 to 500	> 1.67
> 10	CC(C)Oc1ccc(-c2cnc(CNc3cc(-n4cncn4)nc(C(F)(F)F)c3)nc2)cc1Cl [Compound 43, N-((5-(3-Chloro-4-isopropoxyphenyl)pyrimidin-2-yl)methyl)-2-(1H-1,2,4-triazol-1-yl)-6-(trifluoromethyl)pyridin-4-amine]		> 1.67
	Fc1ccc(Oc2ccc(-c3ncc(CNc4cc(-c5cn[nH]c5)nc(C(F)(F)F)c4)cn3)cc2)cc1 [Compound 53, N-((2-(4-(4-Fluorophenoxy)phenyl)pyrimidin-5-yl)methyl)-2-(1H-pyrazol-4-yl)-6-(trifluoromethyl)pyridin-4-amine]	101 to 200	> 1.67
	N#Cc1cc(-c2ncc(CNc3cc(-c4cn[nH]c4)nc(C(F)(F)F)c3)cn2)ccc1Cl [Compound 50, 5-(5-(((2-(1H-Pyrazol-4-yl)-6-(trifluoromethyl)pyridin-4-yl)amino)methyl)pyrimidin-2-yl)-2-chlorobenzonitrile]	101 to 200	
	CC(C)Oc1ccc(-c2cnc(CNc3cc(-n4cncn4)nc(C(F)(F)F)c3)nc2)cc1 [Compound 42, N-((5-(4-Isopropoxyphenyl)pyrimidin-2-yl)methyl)-2-(1H-1,2,4-triazol-1-yl)-6-(trifluoromethyl)pyridin-4-amine]	201 to 500	> 1.67
	CC(C)Oc1ccc(-c2cnc(CNc3cc(-c4cnn(C)c4)nc(C(F)(F)F)c3)nc2)cc1 [Compound 44, N-((5-(4-Isopropoxyphenyl)pyrimidin-2-yl)methyl)-2-(1-methyl-1H-pyrazol-4-yl)-6-(trifluoromethyl)pyridin-4-amine]	201 to 500	> 1.67

SMILES	solubility at 5 min [3] [µM]	IC50 [1] [nM]	half-life at 1 µM [2] [h]
CC(C)Oc1ccc(-c2cnc(CNc3cc(-c4cn[nH]c4)nc(C(F)(F)F)c3)nc2)cc1 [Compound 40, N-((5-(4-Isopropoxyphenyl)pyrimidin-2-yl)methyl)-2-(1H-pyrazol-4-yl)-6-(trifluoromethyl)pyridin-4-amine]	> 10	201 to 500	
FC(F)(F)c1cc(SCc2nc3cc(Oc4ccccc4)ccc3[nH]2)cc(-c2cn[nH]c2)n1 [Compound 64, 2-(((2-(1H-pyrazol-4-yl)-6-(trifluoromethyl)pyridin-4-yl)thio)methyl)-5-phenoxy-1H-benzo[d]imidazole]	> 10	101 to 200	
N#Cc1cccc(-c2ncc(CNc3cc(-c4cn[nH]c4)nc(C(F)(F)F)c3)cn2)c1 [Compound 36, 3-(5-(((2-(1H-Pyrazol-4-yl)-6-(trifluoromethyl)pyridin-4-yl)amino)methyl)pyrimidin-2-yl)benzonitrile]	> 25	201 to 500	
Cc1ccc(-c2ncc(CNc3cc(-c4cn[nH]c4)nc(C(F)(F)F)c3)cn2)cc1C#N [Compound 37, 5-(5-(((2-(1H-Pyrazol-4-yl)-6-(trifluoromethyl)pyridin-4-yl)amino)methyl)pyrimidin-2-yl)-2-methylbenzonitrile]	> 10	101 to 200	
N#Cc1cc(-c2ncc(CNc3cc(-c4cn[nH]c4)nc(C(F)(F)F)c3)cn2)ccc1F [Compound 38, 5-(5-(((2-(1H-Pyrazol-4-yl)-6-(trifluoromethyl)pyridin-4-yl)amino)methyl)pyrimidin-2-yl)-2-fluorobenzonitrile]	> 25	101 to 200	
CC(C)Oc1ccc(-c2ccc(CNc3cc(-c4cn[nH]c4)nc(C(F)(F)F)c3)nn2)cc1 [Compound 22, N-((6-(4-Isopropoxyphenyl)pyridazin-3-yl)methyl)-2-(1H-pyrazol-4-yl)-6-(trifluoromethyl)pyridin-4-amine]	> 25	201 to 500	
